Source: the supplement of paper PMC10307832

What was measured:
Test in all cases: relative viability (nuclei count vs DMSO), 5 days (fraction); higher = more cells survive
[1] = compound: CCNC(=O)c1noc(-c2cc(C(C)C)c(O)cc2O)c1-c1ccc(CN2CCOCC2)cc1 [Luminespib]
Procedure, shortened: (§1)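 Lung cancer cell lines received five library-drug doses (not always all listed) spaced by √10, pinned on vehicle-anchored 1536-well plates after an overnight stay at 37 °C. Five days later, with no medium change, nuclei were Hoechst-stained, imaged at 4× and counted with MetaXpress. Viability is treated-well nuclei relative to vehicle-well nuclei, as a median across plates. Passing plates had control CV below 25% and at least one doubling.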

[2] = compound: Cc1cn(-c2cc(NC(=O)c3ccc(C)c(Nc4nccc(-c5cccnc5)n4)c3)cc(C(F)(F)F)c2)cn1 [Nilotinib]
Procedure, shortened: as §1

[3] = compound: CN1CCN(CCOc2cc(OC3CCOCC3)c3c(Nc4c(Cl)ccc5c4OCO5)ncnc3c2)CC1 [Saracatinib]
Procedure, shortened: as §1

[4] = compound: CC1=CSC(=NC2CCCCC2)N1/N=C/C3=C(C(=C(C=C3)O)O)O [MIM1]
Procedure, shortened: as §1

[5] = compound: Nc1cccc2c1CN(C1CCC(=O)NC1=O)C2=O [Lenalidomide]
Procedure, shortened: as §1

Cell Line	relative viability ([1]; 0.002 µM)	relative viability ([1]; 0.006325 µM)	relative viability ([1]; 0.01 µM, anchor plate)	relative viability ([1]; 0.02 µM)	relative viability ([1]; 0.06325 µM)	relative viability ([1]; 0.2 µM)	relative viability ([2]; 0.001 µM)	relative viability ([2]; 0.003162 µM)	relative viability ([2]; 0.03162 µM)	relative viability ([2]; 0.1 µM)	relative viability ([3]; 0.02 µM)	relative viability ([3]; 0.2 µM)	relative viability ([3]; 0.6325 µM)	relative viability ([3]; 2 µM)	relative viability ([4]; 0.2 µM)	relative viability ([4]; 0.6325 µM)	relative viability ([4]; 2 µM)	relative viability ([4]; 6.325 µM)	relative viability ([4]; 20 µM)	relative viability ([5]; 0.253 µM)	relative viability ([5]; 0.8 µM)	relative viability ([5]; 2.53 µM)	relative viability ([5]; 8 µM)	relative viability ([2]; 0.01 µM)
H3255	0.969	0.808	0.933	0.702	0.834	0.346	0.937	0.971	0.877	0.907	1.04	0.851	0.989	0.348	0.952	0.882	0.891	0.724	0.35	0.983	0.969	1.05	0.882	–
HARA	0.862	0.784	0.834	0.878	0.783	0.131	0.983	0.981	0.647	0.569	0.979	0.852	1.14	0.561	0.903	0.961	0.998	0.365	0.225	1.11	–	1.13	1.05	0.948
HCC-15	0.967	0.923	0.388	0.943	0.33	0.128	0.909	1.18	0.761	0.496	0.982	0.888	1.07	0.99	0.997	0.717	1.08	0.425	0.105	1.02	0.877	1.21	0.854	1.15
HCC-44	0.969	1.01	1.09	0.997	0.55	0.225	1	0.921	0.949	0.722	1.06	0.878	1.04	1.03	1.01	0.969	0.661	0.604	0.203	1.01	0.68	0.992	0.78	0.93
HCC-78	0.869	0.72	–	–	0.999	0.4	1.06	0.937	0.84	0.746	0.956	0.815	1.08	0.834	1.07	0.549	0.888	0.677	0.424	0.885	0.861	0.957	0.618	1.07
HCC-366	0.988	0.987	–	0.998	0.0511	0.053	0.982	1.12	0.971	0.527	1.07	0.731	0.952	0.77	0.991	–	0.973	0.216	0.0492	1.02	0.989	1.07	0.934	1.24
HCC-827	1.06	1	0.647	0.984	1.03	0.235	1.02	1.09	1.03	1.06	1.02	0.813	0.366	0.188	1.01	0.994	1.03	0.367	0.39	1.04	0.99	1.05	1.1	1.07
